Columns and labels:
Assay in all cases: relative viability (nuclei count vs DMSO), 5 days (fraction); higher = more cells survive
[1] = compound: C(C(=O)C(=O)O)Br [Bromopyruvate] + Cc1nc(Nc2ncc(C(=O)Nc3c(C)cccc3Cl)s2)cc(N2CCN(CCO)CC2)n1 [Dasatinib] (partner 0.075 µM)
In short: (§1)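 Values are medians from duplicate plates. Each reflects relative viability, defined as the nuclei count of treated wells over that of vehicle wells. Lung cancer cell lines in 1536-well plates were pin-tool dosed one day after seeding with one drug alone or with a fixed anchor-drug dose plus five library-drug doses (not always all listed) in √10 steps, then fixed, stained and imaged at 4× after 5 days.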

Bicalutamide + Foretinib = compound: CC(O)(CS(=O)(=O)c1ccc(F)cc1)C(=O)Nc1ccc(C#N)c(C(F)(F)F)c1 [Bicalutamide] + COc1cc2c(Oc3ccc(NC(=O)C4(C(=O)Nc5ccc(F)cc5)CC4)cc3F)ccnc2cc1OCCCN1CCOCC1 [Foretinib] (partner 0.25 µM)
In short: as §1

[2] = compound: CC(O)(CS(=O)(=O)c1ccc(F)cc1)C(=O)Nc1ccc(C#N)c(C(F)(F)F)c1 [Bicalutamide] + CS(=O)(=O)N1CCN(Cc2cc3nc(-c4cccc5[nH]ncc45)nc(N4CCOCC4)c3s2)CC1 [Pictilisib] (partner 1 µM)
In short: as §1

[3] = compound: CC(O)(CS(=O)(=O)c1ccc(F)cc1)C(=O)Nc1ccc(C#N)c(C(F)(F)F)c1 [Bicalutamide] + CC(=O)Nc1cccc(-n2c(=O)n(C3CC3)c(=O)c3c(Nc4ccc(I)cc4F)n(C)c(=O)c(C)c32)c1 [Trametinib] (partner 0.02 µM)
In short: as §1

Cell Line | relative viability ([1]; first compound 1 µM) | relative viability ([1]; first compound 3.162 µM) | relative viability ([1]; first compound 10 µM) | relative viability ([1]; first compound 31.62 µM) | relative viability ([1]; first compound 100 µM) | relative viability (Bicalutamide + Foretinib; first compound 0.08 µM) | relative viability (Bicalutamide + Foretinib; first compound 0.253 µM) | relative viability (Bicalutamide + Foretinib; first compound 0.8 µM) | relative viability (Bicalutamide + Foretinib; first compound 2.53 µM) | relative viability ([2]; first compound 0.08 µM) | relative viability ([2]; first compound 0.253 µM) | relative viability ([2]; first compound 0.8 µM) | relative viability ([2]; first compound 2.53 µM) | relative viability ([3]; first compound 0.08 µM) | relative viability ([3]; first compound 0.253 µM) | relative viability ([3]; first compound 0.8 µM) | relative viability ([3]; first compound 2.53 µM)
ABC-1 | 0.692 | 0.492 | 0.62 | 0.584 | 0.348 | 0.987 | 1.05 | 1.18 | 1.24 | 0.812 | 0.731 | 1.06 | 0.758 | – | – | – | –
SW 900 | 0.498 | 0.552 | 0.533 | 0.516 | 0.592 | 1.15 | 0.866 | 1.04 | 1.07 | – | – | – | – | 0.778 | 0.678 | 0.756 | 0.809
PC-14 | 0.307 | 0.328 | 0.284 | 0.272 | 0.191 | 0.951 | 0.905 | 1.03 | 0.965 | 0.894 | 0.652 | 0.707 | 0.659 | 0.879 | 0.738 | 0.926 | 0.72
NCI-H1648 | – | – | – | – | – | – | – | – | – | – | – | – | – | – | – | 0.395 | 0.546
A549 | – | – | – | – | – | 0.907 | 1.02 | 1.01 | 0.927 | 0.546 | 0.483 | 0.617 | 0.357 | – | – | – | –
A-427 | 0.733 | 0.688 | 0.685 | 0.669 | 0.685 | 1.08 | 1.03 | 1.09 | 1.05 | 0.676 | 0.812 | 0.867 | 0.628 | 0.782 | 0.731 | 0.845 | 0.688
NCI-H1792 | 0.81 | 0.892 | 0.91 | – | 0.723 | – | – | – | – | 0.299 | 0.224 | 0.284 | 0.245 | 0.439 | 0.362 | 0.542 | 0.434
LCLC-97TM1 | 0.74 | 0.898 | 0.835 | 0.763 | 0.957 | 0.871 | 0.923 | 1.04 | 0.96 | 0.256 | 0.206 | 0.228 | 0.199 | 0.214 | 0.177 | 0.212 | 0.188
NCI-H1703 | – | – | – | – | – | 0.342 | 0.36 | 0.41 | 0.293 | 0.235 | 0.261 | 0.236 | 0.231 | – | – | – | –
LCLC-103H | 0.479 | 0.494 | 0.413 | 0.447 | 0.54 | 0.748 | 0.702 | 0.907 | 0.698 | 0.692 | 0.444 | 0.673 | 0.544 | 0.705 | 0.676 | 0.697 | 0.704
RERF-LC-KJ | 0.882 | 0.797 | 1.04 | 0.878 | 0.73 | 0.814 | 0.927 | 1.04 | 0.889 | 0.628 | 0.506 | 0.634 | 0.613 | 0.968 | 0.909 | 1.07 | 0.81
BEN | 0.367 | 0.297 | 0.354 | 0.26 | 0.379 | 0.604 | 0.609 | 0.791 | 0.682 | 0.589 | 0.472 | 0.713 | 0.632 | 1.05 | 0.94 | 1.17 | 1.1
NCI-H1666 | 0.847 | 0.839 | 0.785 | 0.855 | 0.694 | 0.927 | 0.975 | 0.913 | 0.977 | 0.392 | 0.404 | 0.477 | 0.406 | 0.926 | 0.838 | 0.866 | 0.959
LC-2-ad | 0.765 | 0.671 | 0.634 | 0.54 | 0.437 | 0.969 | 0.829 | 1.02 | 1.03 | 0.536 | 0.459 | 0.637 | 0.502 | 0.892 | 0.86 | 0.961 | 0.907
SW 1573 | 0.598 | 0.684 | 0.492 | 0.276 | 0.0416 | 0.929 | 0.71 | 1.08 | 0.778 | 0.564 | 0.475 | 0.461 | 0.535 | 0.668 | 0.473 | 0.748 | 0.608
ChaGo-K-1 | 0.59 | 0.607 | 0.604 | 0.586 | 0.589 | 0.897 | 0.748 | 0.937 | 0.825 | 0.818 | 0.606 | 0.892 | 0.523 | 0.854 | 0.865 | 1.03 | 0.926
COR-L 105 | 0.336 | 0.36 | 0.294 | 0.319 | 0.195 | 1.35 | 0.976 | 0.859 | 0.784 | 0.372 | 0.324 | 0.394 | 0.303 | 0.397 | 0.371 | 0.383 | 0.381
NCI-H1975 | 0.369 | 0.4 | 0.349 | 0.442 | 0.344 | 1.07 | 0.824 | 0.971 | 0.827 | 0.291 | 0.331 | 0.329 | 0.233 | 0.323 | 0.412 | 0.386 | 0.339
Calu-6 | – | – | – | – | – | 0.931 | 0.916 | 0.853 | 0.843 | 1.06 | 0.87 | 1.04 | 0.839 | – | – | – | –
NCI-H2342 | 0.307 | 0.292 | 0.319 | 0.285 | 0.319 | 1.08 | 1.13 | 1.09 | 1.08 | – | – | – | – | 0.771 | 0.807 | 0.768 | 0.805
EBC-1 | – | – | – | – | – | 0.0878 | 0.115 | 0.0994 | 0.121 | 0.41 | 0.362 | 0.378 | 0.23 | – | – | – | –
NCI-H1299 | – | – | – | – | – | 1.04 | 1.08 | 1.09 | 1.08 | 0.909 | 0.698 | 0.823 | 0.492 | – | – | – | –
NCI-H522 | 0.856 | 0.781 | 0.816 | 0.892 | 1.01 | – | – | – | – | – | – | – | – | 0.661 | 0.723 | 0.813 | 0.8
IA-LM | – | – | – | – | – | 1.22 | 1.1 | 1.17 | 1.18 | 0.368 | 0.389 | 0.422 | 0.507 | – | – | – | –
